Results reported in patent US10405547B2, “Substituted cyclic amides as herbicides” (FMC Corporation, priority 2015, dated 2019).

How the values were obtained:
Type in all cases: in vivo
[1] = test system: barnyardgrass (Echinochloa crus-galli); assay: Test A preemergence, barnyardgrass; settings: 0 to 100 scale (0 no effect, 100 complete control)
Outline: (§1)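 Greenhouse assay; ~10 d; visual injury vs untreated control, scored 0 = no effect through 100 = complete control. Post-emergent seedlings at one–two leaves; pre-emergent seeds in loam/sand given a directed soil spray.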

kochia (Kochia scoparia) [2] = assay: Test A preemergence, kochia; settings: 0 to 100 scale (0 no effect, 100 complete control)
Outline: as §1

[3] = test system: ragweed (common ragweed, Ambrosia elatior); assay: Test A preemergence, ragweed; settings: 0 to 100 scale (0 no effect, 100 complete control)
Outline: as §1

[4] = test system: ryegrass, Italian (Lolium multiflorum); assay: Test A preemergence, Italian ryegrass; settings: 0 to 100 scale (0 no effect, 100 complete control)
Outline: as §1

[5] = test system: foxtail, giant (Setaria faberii); assay: Test A preemergence, giant foxtail; settings: 0 to 100 scale (0 no effect, 100 complete control)
Outline: as §1

[6] = test system: pigweed (Amaranthus retroflexus); assay: Test A preemergence, pigweed; settings: 0 to 100 scale (0 no effect, 100 complete control)
Outline: as §1

[7] = test system: barnyardgrass (Echinochloa crus-galli); assay: Test A postemergence, barnyardgrass; settings: visual injury, 0 to 100 scale (0 no effect, 100 complete control), approximately 10 days
Outline: as §1

kochia (Kochia scoparia) [8] = assay: Test A postemergence, kochia; settings: visual injury, 0 to 100 scale (0 no effect, 100 complete control), approximately 10 days
Outline: as §1

[9] = test system: ragweed (common ragweed, Ambrosia elatior); assay: Test A postemergence, ragweed; settings: visual injury, 0 to 100 scale (0 no effect, 100 complete control), approximately 10 days
Outline: as §1

[10] = test system: ryegrass, Italian (Lolium multiflorum); assay: Test A postemergence, Italian ryegrass; settings: visual injury, 0 to 100 scale (0 no effect, 100 complete control), approximately 10 days
Outline: as §1

[11] = test system: foxtail, giant (Setaria faberii); assay: Test A postemergence, giant foxtail; settings: visual injury, 0 to 100 scale (0 no effect, 100 complete control), approximately 10 days
Outline: as §1

[12] = test system: pigweed (Amaranthus retroflexus); assay: Test A postemergence, pigweed; settings: visual injury, 0 to 100 scale (0 no effect, 100 complete control), approximately 10 days
Outline: as §1

[13] = test system: blackgrass (Alopecurus myosuroides); assay: Test A postemergence, blackgrass; settings: visual injury, 0 to 100 scale (0 no effect, 100 complete control), approximately 10 days
Outline: as §1

[14] = test system: galium (catchweed bedstraw, Galium aparine); assay: Test A postemergence, galium; settings: visual injury, 0 to 100 scale (0 no effect, 100 complete control), approximately 10 days
Outline: as §1

[15] = test system: wheat (Triticum aestivum); assay: Test A postemergence, wheat; settings: visual injury, 0 to 100 scale (0 no effect, 100 complete control), approximately 10 days
Outline: as §1

corn (Zea mays) = assay: Test A postemergence, corn; settings: visual injury, 0 to 100 scale (0 no effect, 100 complete control), approximately 10 days
Outline: as §1

rice (Oryza sativa) = assay: Test B flooded paddy test, rice; settings: 250 g ai/ha, applied to paddy water, visual rating after 13 to 15 days, scale 0 (no effect) to 100 (complete control)
Source text: (§2) At time of treatment, test pots were flooded to 3 cm above the soil surface, treated by application of test compounds directly to the paddy water, and then maintained at that water depth for the duration of the test. Treated plants and controls were maintained in a greenhouse for 13 to 15 days, after which time all species were compared to controls and visually evaluated. […] A dash (-) response means no test result.

[16] = test system: sedge, umbrella (small-flower umbrella sedge, Cyperus difformis); assay: Test B flooded paddy test, umbrella sedge; settings: 250 g ai/ha, applied to paddy water, visual rating after 13 to 15 days, scale 0 (no effect) to 100 (complete control)
Source text: as §2

[17] = test system: ducksalad (Heteranthera limosa); assay: Test B flooded paddy test, ducksalad; settings: 250 g ai/ha, applied to paddy water, visual rating after 13 to 15 days, scale 0 (no effect) to 100 (complete control)
Source text: as §2

[18] = test system: barnyardgrass (Echinochloa crus-galli); assay: Test B flooded paddy test, barnyardgrass; settings: 250 g ai/ha, applied to paddy water, visual rating after 13 to 15 days, scale 0 (no effect) to 100 (complete control)
Source text: as §2

Compound | Plant response rating, Barnyardgrass ([1]; 125 g ai/ha) | Plant response rating, Barnyardgrass ([1]; 500 g ai/ha) | Plant response rating, Kochia (kochia (Kochia scoparia) [2]; 125 g ai/ha) | Plant response rating, Kochia (kochia (Kochia scoparia) [2]; 500 g ai/ha) | Plant response rating, Ragweed ([3]; 125 g ai/ha) | Plant response rating, Ragweed ([3]; 500 g ai/ha) | Plant response rating, Ryegrass, Italian ([4]; 125 g ai/ha) | Plant response rating, Ryegrass, Italian ([4]; 500 g ai/ha) | Plant response rating, Foxtail, Giant ([5]; 125 g ai/ha) | Plant response rating, Foxtail, Giant ([5]; 500 g ai/ha) | Plant response rating, Pigweed ([6]; 125 g ai/ha) | Plant response rating, Pigweed ([6]; 500 g ai/ha) | Plant response rating, Barnyardgrass ([7]; 125 g ai/ha) | Plant response rating, Barnyardgrass ([7]; 500 g ai/ha) | Plant response rating, Ragweed ([9]; 125 g ai/ha) | Plant response rating, Ragweed ([9]; 500 g ai/ha) | Plant response rating, Ryegrass, Italian ([10]; 125 g ai/ha) | Plant response rating, Ryegrass, Italian ([10]; 500 g ai/ha) | Plant response rating, Foxtail, Giant ([11]; 125 g ai/ha) | Plant response rating, Foxtail, Giant ([11]; 500 g ai/ha) | other results
CN1CC(c2cccc(Oc3ncc(F)cn3)c2)C(C(=O)Nc2ccccc2F)C1=O (single isomer, unassigned) [Compound 36] | 90 | 90 | 0 | 40 | 0 | 50 | 0 | 90 | 90 | 90 | 0 | 40 | 90 | 90 | 0 | 40 | 0 | 50 | 80 | 80 | Plant response rating, Kochia (kochia (Kochia scoparia) [8]; 125 g ai/ha): 0; Plant response rating, Kochia (kochia (Kochia scoparia) [8]; 500 g ai/ha): 50; Plant response rating, Pigweed ([12]; 125 g ai/ha): 30; Plant response rating, Pigweed ([12]; 500 g ai/ha): 50; Plant response rating, Blackgrass ([13]; 125 g ai/ha): 20; Plant response rating, Blackgrass ([13]; 500 g ai/ha): 50; Plant response rating, Galium ([14]; 125 g ai/ha): 40; Plant response rating, Galium ([14]; 500 g ai/ha): 70; Plant response rating, Wheat ([15]; 125 g ai/ha): 0; Plant response rating, Wheat ([15]; 500 g ai/ha): 60; Plant response rating, Corn (corn (Zea mays); 125 g ai/ha): 40; Plant response rating, Corn (corn (Zea mays); 500 g ai/ha): 90; Plant response rating, Rice (Flood) (rice (Oryza sativa)): 30; Plant response rating, Sedge, Umbrella (Flood) [16]: 0; Plant response rating, Ducksalad (Flood) [17]: 0; Plant response rating, Barnyardgrass (Flood) [18]: 60
O=C1NCC(c2cccc(Oc3ncc(F)cn3)c2)C1C(=O)Nc1cccc(F)c1F (single isomer, unassigned) [Compound 37] | 90 | 90 | 0 | 70 | 0 | 80 | 20 | 50 | 90 | 100 | 60 | 80 | 90 | 100 | 20 | 70 | 0 | 60 | 70 | 90 | Plant response rating, Kochia (kochia (Kochia scoparia) [8]; 125 g ai/ha): 0; Plant response rating, Kochia (kochia (Kochia scoparia) [8]; 500 g ai/ha): 50; Plant response rating, Pigweed ([12]; 125 g ai/ha): 40; Plant response rating, Pigweed ([12]; 500 g ai/ha): 70; Plant response rating, Blackgrass ([13]; 125 g ai/ha): 40; Plant response rating, Blackgrass ([13]; 500 g ai/ha): 70; Plant response rating, Galium ([14]; 125 g ai/ha): 50; Plant response rating, Galium ([14]; 500 g ai/ha): 70; Plant response rating, Wheat ([15]; 125 g ai/ha): 20; Plant response rating, Wheat ([15]; 500 g ai/ha): 70; Plant response rating, Corn (corn (Zea mays); 125 g ai/ha): 70; Plant response rating, Corn (corn (Zea mays); 500 g ai/ha): 90; Plant response rating, Rice (Flood) (rice (Oryza sativa)): 20; Plant response rating, Sedge, Umbrella (Flood) [16]: 0; Plant response rating, Ducksalad (Flood) [17]: 100; Plant response rating, Barnyardgrass (Flood) [18]: 30
CN1CC(c2cccc(Oc3ncc(F)cn3)c2)C(C(=O)Nc2cccc(F)c2F)C1=O (single isomer, unassigned) [Compound 38] | 90 | 100 | 30 | 70 | 40 | 80 | 80 | 100 | 100 | 100 | 80 | 100 | 100 | 100 | 20 | 80 | 70 | 80 | 90 | 90 | Plant response rating, Kochia (kochia (Kochia scoparia) [8]; 125 g ai/ha): 30; Plant response rating, Kochia (kochia (Kochia scoparia) [8]; 500 g ai/ha): 60; Plant response rating, Pigweed ([12]; 125 g ai/ha): 50; Plant response rating, Pigweed ([12]; 500 g ai/ha): 70; Plant response rating, Blackgrass ([13]; 125 g ai/ha): 70; Plant response rating, Blackgrass ([13]; 500 g ai/ha): 70; Plant response rating, Galium ([14]; 125 g ai/ha): 50; Plant response rating, Galium ([14]; 500 g ai/ha): 70; Plant response rating, Wheat ([15]; 125 g ai/ha): 50; Plant response rating, Wheat ([15]; 500 g ai/ha): 70; Plant response rating, Corn (corn (Zea mays); 125 g ai/ha): 90; Plant response rating, Corn (corn (Zea mays); 500 g ai/ha): 100; Plant response rating, Rice (Flood) (rice (Oryza sativa)): 0; Plant response rating, Sedge, Umbrella (Flood) [16]: 0; Plant response rating, Ducksalad (Flood) [17]: 80; Plant response rating, Barnyardgrass (Flood) [18]: 60
CN1CC(c2cccc(Oc3ccc(F)cn3)c2)C(C(=O)Nc2cccc(F)c2F)C1=O (single isomer, unassigned) [Compound 61] | 90 | 90 | 60 | 80 | 30 | 60 | 80 | 90 | 90 | 90 | 70 | 90 | 70 | 80 | 40 | 50 | 70 | 70 | 90 | 90 | Plant response rating, Pigweed ([12]; 125 g ai/ha): 40; Plant response rating, Pigweed ([12]; 500 g ai/ha): 70; Plant response rating, Blackgrass ([13]; 125 g ai/ha): 40; Plant response rating, Blackgrass ([13]; 500 g ai/ha): 50; Plant response rating, Galium ([14]; 125 g ai/ha): 60; Plant response rating, Galium ([14]; 500 g ai/ha): 70; Plant response rating, Wheat ([15]; 125 g ai/ha): 50; Plant response rating, Wheat ([15]; 500 g ai/ha): 80; Plant response rating, Corn (corn (Zea mays); 125 g ai/ha): 70; Plant response rating, Corn (corn (Zea mays); 500 g ai/ha): 90; Plant response rating, Rice (Flood) (rice (Oryza sativa)): 0; Plant response rating, Sedge, Umbrella (Flood) [16]: 0; Plant response rating, Ducksalad (Flood) [17]: 100; Plant response rating, Barnyardgrass (Flood) [18]: 40
O=C1NCC(c2cccc(Oc3ccc(C(F)(F)F)cn3)c2)C1C(=O)Nc1ccccc1F (single isomer, unassigned) [Compound 62] | 90 | 90 | 30 | 60 | 0 | 50 | 0 | 20 | 90 | 90 | 30 | 50 | 70 | 90 | 0 | 40 | 0 | 30 | 80 | 90 | Plant response rating, Pigweed ([12]; 125 g ai/ha): 0; Plant response rating, Pigweed ([12]; 500 g ai/ha): 30; Plant response rating, Blackgrass ([13]; 125 g ai/ha): 0; Plant response rating, Blackgrass ([13]; 500 g ai/ha): 30; Plant response rating, Galium ([14]; 125 g ai/ha): 30; Plant response rating, Galium ([14]; 500 g ai/ha): 60; Plant response rating, Wheat ([15]; 125 g ai/ha): 0; Plant response rating, Wheat ([15]; 500 g ai/ha): 30; Plant response rating, Corn (corn (Zea mays); 125 g ai/ha): 30; Plant response rating, Corn (corn (Zea mays); 500 g ai/ha): 30; Plant response rating, Rice (Flood) (rice (Oryza sativa)): 20; Plant response rating, Sedge, Umbrella (Flood) [16]: 0; Plant response rating, Ducksalad (Flood) [17]: 100; Plant response rating, Barnyardgrass (Flood) [18]: 40
